Results: patent publication US20240190849A1, “AMINOPYRIMIDINE COMPOUNDS AND METHODS OF THEIR USE” (TYRA BIOSCIENCES, INC., priority 2021, published 2024)

Legend:
FGFR1 = molecular target: T1, FGFR1 (Homo sapiens, UniProt P11362); experiment: Kinase binding assay (kinase-tagged T7 phage, affinity beads, qPCR readout), FGFR1; settings: FGFR binding data
T1 construct: made in house; host or cells: E. coli derived from BL21, infected with T7 phage
Procedure, shortened: (§1)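 Phage lysate kinase + liganded magnetic beads + compound, 11-pt 3-fold series, 0.9% DMSO; 1 h RT shaking. Wash, elute 30 min with 0.5 μM non-biotinylated ligand; qPCR readout. Hill fit, slope −1 → Kd.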

FGFR3 (V555M) = molecular target: T2, FGFR3 (V555M) (Homo sapiens, UniProt P22607, V555M); experiment: Kinase binding assay (kinase-tagged T7 phage, affinity beads, qPCR readout), FGFR3 (V555M); settings: FGFR binding data
T2 construct: made in house; host or cells: E. coli derived from BL21, infected with T7 phage
Procedure, shortened: as §1

[1] = system: SNU-16 (Gastric Carcinoma), FGFR2 amplification; experiment: Cancer cell viability assay (Cell Titer-Glo), SNU-16; assay type: cell-based; settings: Homo sapiens, SNU-16 cells, 72 hours, read-out: SNU16 FGFR2 (IC50 nM)
Excerpt: RT112/84, UM-UC-14, SNU-16 and KG-1 Cancer Cell Line Cell Viability Assays
To detect the change of intracellular ATP by Cell Titer-Glo@ and to evaluate the inhibitory effect of the compounds on cancer cell lines by determining the in vitro IC50 value of the compounds.
Cell Titer-Glo@ 2.0 Luminescent cell viability assay reagent was purchased from Promega (Madison, WI). RT112/84, SNU-16, and KG-1 cell lines were purchased from American Type Culture Collection (Manassas, VA). UM-UC-14 cell line was purchased from Sigma (St. Louis, MO). RT112/84, UM-UC-14, SNU-16, and KG-1 cells were cultured in RPMI1640 media supplemented with 10% fetal bovine serum. Cultures were maintained at 37° C. in a humidified atmosphere of 5% CO2 and 95% air.
Cell Viability Assay Procedure: Cells were plated in 96-well clear bottom/white plates (Corning #3903) at 10,000 cells/well in 100 μl of media, incubated overnight. The next day, test compound DMSO stock solutions were made at 10 mM and 2 μM final concentration. Compounds were then added to cells in a 9-dose, […] dilution series starting at 30 μM with an HP 300e Digital Dispenser (each dose was applied in triplicate). DMSO was backfilled to each well up to 301 nL total volume of test compound+DMSO, and a total of 301 nL DMSO was added to a control/no test compound well in triplicate. The cells in cell culture plates were incubated with the compounds at 37° C. and 5% CO2 for 72 hours. Then 50 μl of Cell Titer Glo 2.0 reagent was added to each well of the cell culture plates. The contents were covered from light and mixed on an orbital shaker at room temperature for 10 min. Luminescence was recorded by a Synergy H1 Microplate Reader (Biotek, Winooski, VT). Cells were assessed as a percentage of DMSO only treated control cells. Curves were plotted and IC50 values were calculated using the GraphPad Prism 8 program based on a sigmoidal dose-response equation (4 parameter).

FGFR2 = molecular target: T3, FGFR2 (Homo sapiens, UniProt P21802); experiment: Kinase binding assay (kinase-tagged T7 phage, affinity beads, qPCR readout), FGFR2; settings: FGFR binding data
T3 construct: made in house; host or cells: E. coli derived from BL21, infected with T7 phage
Procedure, shortened: as §1

FGFR3 = molecular target: T4, FGFR3 (Homo sapiens, UniProt P22607); experiment: Kinase binding assay (kinase-tagged T7 phage, affinity beads, qPCR readout), FGFR3; settings: FGFR binding data
T4 construct: made in house; host or cells: E. coli derived from BL21, infected with T7 phage
Procedure, shortened: as §1

T1 sequence (P11362 22-822): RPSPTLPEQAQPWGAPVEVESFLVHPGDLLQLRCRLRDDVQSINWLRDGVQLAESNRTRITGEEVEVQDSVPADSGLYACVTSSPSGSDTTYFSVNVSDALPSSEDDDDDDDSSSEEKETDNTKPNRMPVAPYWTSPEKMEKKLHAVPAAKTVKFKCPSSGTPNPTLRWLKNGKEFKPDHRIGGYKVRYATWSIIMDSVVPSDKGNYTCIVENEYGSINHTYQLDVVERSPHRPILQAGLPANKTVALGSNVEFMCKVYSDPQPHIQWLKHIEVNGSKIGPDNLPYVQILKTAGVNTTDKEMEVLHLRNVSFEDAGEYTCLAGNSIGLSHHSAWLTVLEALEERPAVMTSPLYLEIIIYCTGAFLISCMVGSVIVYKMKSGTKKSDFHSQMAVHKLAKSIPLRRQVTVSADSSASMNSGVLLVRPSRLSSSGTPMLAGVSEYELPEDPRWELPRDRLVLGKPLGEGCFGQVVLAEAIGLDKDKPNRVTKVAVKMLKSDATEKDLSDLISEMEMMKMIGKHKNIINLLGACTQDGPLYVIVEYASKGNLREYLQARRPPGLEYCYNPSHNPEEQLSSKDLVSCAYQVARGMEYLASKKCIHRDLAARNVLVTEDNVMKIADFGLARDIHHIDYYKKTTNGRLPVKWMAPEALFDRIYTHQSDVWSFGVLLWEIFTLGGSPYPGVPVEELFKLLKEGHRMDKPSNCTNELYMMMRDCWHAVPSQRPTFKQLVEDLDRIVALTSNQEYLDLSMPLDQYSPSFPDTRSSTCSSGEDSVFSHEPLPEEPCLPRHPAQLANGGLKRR
T3 sequence (P21802 22-821): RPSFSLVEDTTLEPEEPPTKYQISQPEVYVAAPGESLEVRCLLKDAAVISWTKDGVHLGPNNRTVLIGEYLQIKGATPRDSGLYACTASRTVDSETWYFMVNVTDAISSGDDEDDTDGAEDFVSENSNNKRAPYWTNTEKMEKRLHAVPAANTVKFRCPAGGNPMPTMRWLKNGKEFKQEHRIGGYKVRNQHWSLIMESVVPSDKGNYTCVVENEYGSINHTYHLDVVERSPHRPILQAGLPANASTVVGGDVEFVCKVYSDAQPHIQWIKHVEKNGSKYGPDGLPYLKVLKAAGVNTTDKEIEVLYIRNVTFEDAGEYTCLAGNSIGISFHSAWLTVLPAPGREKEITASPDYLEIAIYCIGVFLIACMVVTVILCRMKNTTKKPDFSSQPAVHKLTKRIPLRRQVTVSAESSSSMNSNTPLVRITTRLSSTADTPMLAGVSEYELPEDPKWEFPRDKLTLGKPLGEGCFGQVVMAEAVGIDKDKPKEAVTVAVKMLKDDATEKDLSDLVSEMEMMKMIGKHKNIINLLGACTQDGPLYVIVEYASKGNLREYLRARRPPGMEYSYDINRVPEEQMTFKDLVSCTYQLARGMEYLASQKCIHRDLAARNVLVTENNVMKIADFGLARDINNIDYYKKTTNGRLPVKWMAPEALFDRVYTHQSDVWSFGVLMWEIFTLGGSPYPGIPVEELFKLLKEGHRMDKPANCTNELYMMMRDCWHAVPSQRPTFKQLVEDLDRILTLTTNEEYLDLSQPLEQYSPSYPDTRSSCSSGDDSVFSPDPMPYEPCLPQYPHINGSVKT
T2 sequence (P22607 23-806 V555M): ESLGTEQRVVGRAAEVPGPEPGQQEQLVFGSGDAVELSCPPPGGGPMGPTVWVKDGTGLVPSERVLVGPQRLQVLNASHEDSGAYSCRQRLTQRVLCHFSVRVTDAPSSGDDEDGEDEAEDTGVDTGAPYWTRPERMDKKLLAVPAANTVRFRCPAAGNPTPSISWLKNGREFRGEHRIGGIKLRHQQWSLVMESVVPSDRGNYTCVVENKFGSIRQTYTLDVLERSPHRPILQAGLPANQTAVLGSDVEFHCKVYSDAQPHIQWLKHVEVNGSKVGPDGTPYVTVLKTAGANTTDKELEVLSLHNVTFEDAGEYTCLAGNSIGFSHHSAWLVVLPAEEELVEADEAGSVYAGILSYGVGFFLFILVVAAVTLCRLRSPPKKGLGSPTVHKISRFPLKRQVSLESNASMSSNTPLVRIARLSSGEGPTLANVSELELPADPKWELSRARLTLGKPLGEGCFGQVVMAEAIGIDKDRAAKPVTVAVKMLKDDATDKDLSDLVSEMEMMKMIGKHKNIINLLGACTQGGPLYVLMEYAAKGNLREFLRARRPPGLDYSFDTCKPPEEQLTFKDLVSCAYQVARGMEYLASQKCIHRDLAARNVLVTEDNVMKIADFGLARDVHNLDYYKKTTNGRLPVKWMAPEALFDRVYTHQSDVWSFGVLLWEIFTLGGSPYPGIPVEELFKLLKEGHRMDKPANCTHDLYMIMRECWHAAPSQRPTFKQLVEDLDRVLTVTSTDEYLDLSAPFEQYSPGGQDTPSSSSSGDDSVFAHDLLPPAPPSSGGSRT
T4 sequence (P22607 23-806): as the sequence (P22607 23-806 V555M) above, with M533V counted along it

SMILES | Kd (FGFR1) [nM] | Kd (FGFR3 (V555M)) [nM] | IC50 [1] [nM] | Kd (FGFR2) [nM] | Kd (FGFR3) [nM]
C=CC(=O)Nc1ccc2c(c1)c(C)cn2-c1nc(Nc2cnc(C)nc2C)ncc1F [Example 150, N-[1-[2-[(2,4-dimethylpyrimidin-5-yl)amino]-5-fluoro-pyrimidin-4-yl]-3-methyl-indol-5-yl]prop-2-enamide] | 250 to 1000 | 100 to 250 | 0.1 to 100 | 0.1 to 100 | 0.1 to 100
C=CC(=O)Nc1ccc2c(c1)c(C)cn2-c1nc(Nc2cnn(C3CCOCC3)c2)ncc1F [Example 208, N-[1-[5-fluoro-2-[(1-tetrahydropyran-4-ylpyrazol-4-yl)amino]pyrimidin-4-yl]-3-methyl-indol-5-yl]prop-2-enamide] | 0.1 to 100 | 0.1 to 100 | 0.1 to 100 | 0.1 to 100 | 0.1 to 100
C=CC(=O)Nc1ccc2c(-c3nc(Nc4cnn(CCO)c4)ncc3Cl)cn(C)c2c1 [Example 127, N-[3-[5-chloro-2-[[1-(2-hydroxyethyl)pyrazol-4-yl]amino]pyrimidin-4-yl]-1-methyl-indol-6-yl]prop-2-enamide] | 0.1 to 100 | 0.1 to 100 | 0.1 to 100 | 0.1 to 100 | 0.1 to 100
C=CC(=O)Nc1ccc2c(c1)c(C)cn2-c1nc(Nc2cc(C)[nH]n2)ncc1C [Example 123, N-[3-methyl-1-[5-methyl-2-[(5-methyl-1H-pyrazol-3-yl)amino]pyrimidin-4-yl]indol-5-yl]prop-2-enamide] | 0.1 to 100 | 0.1 to 100 | 0.1 to 100 | 0.1 to 100 | 0.1 to 100
C=CC(=O)Nc1ccc2c(c1)c(C)cn2-c1nc(Nc2ccn(C3COC3)n2)ncc1C [Example 120, N-[3-methyl-1-[5-methyl-2-[[1-(oxetan-3-yl)pyrazol-3-yl]amino]pyrimidin-4-yl]indol-5-yl]prop-2-enamide] | 0.1 to 100 | 0.1 to 100 | 0.1 to 100 | 0.1 to 100 | 0.1 to 100
C=CC(=O)Nc1cnc2c(c1)c(C)cn2-c1nc(Nc2ccn(C)n2)ncc1C [Example 97, N-[3-methyl-1-[5-methyl-2-[(1-methylpyrazol-3-yl)amino]pyrimidin-4-yl]pyrrolo[2,3-b]pyridin-5-yl]prop-2-enamide] | 0.1 to 100 | 0.1 to 100 | 0.1 to 100 | 0.1 to 100 | 0.1 to 100
C=CC(=O)Nc1ccc2c(c1)c(C)cn2-c1nc(Nc2cn(CC(F)(F)F)nc2C)ncc1F [Example 165, N-[1-[5-fluoro-2-[[3-methyl-1-(2,2,2-trifluoroethyl)pyrazol-4-yl]amino]pyrimidin-4-yl]-3-methyl-indol-5-yl]prop-2-enamide] | 0.1 to 100 | 0.1 to 100 | 0.1 to 100 | 0.1 to 100 | 0.1 to 100
Cc1nn(C)cc1Nc1ncc(Cl)c(-n2cc(C)c3cc(NC(=O)/C=C/CN(C)C)cnc32)n1 [Example 180, (E)-N-[1-[5-chloro-2-[(1,3-dimethylpyrazol-4-yl)amino]pyrimidin-4-yl]-3-methyl-pyrrolo[2,3-b]pyridin-5-yl]-4-(dimethylamino)but-2-enamide] | 100 to 250 | 0.1 to 100 | 0.1 to 100 | 0.1 to 100 | 0.1 to 100
C=CC(=O)Nc1ccc2c(c1)c(C)cn2-c1nc(Nc2cc(C)n(C)n2)ncc1C [Example 102, N-[1-[2-[(1,5-dimethylpyrazol-3-yl)amino]-5-methyl-pyrimidin-4-yl]-3-methyl-indol-5-yl]prop-2-enamide] | 0.1 to 100 | 0.1 to 100 | 0.1 to 100 | 0.1 to 100 | 0.1 to 100
C=CC(=O)Nc1ccc2c(c1)c(C)cn2-c1nc(Nc2cn(C[C@@H](C)O)nc2C)ncc1F [Example 214, N-[1-[5-fluoro-2-[[1-[(2R)-2-hydroxypropyl]-3-methyl-pyrazol-4-yl]amino]pyrimidin-4-yl]-3-methyl-indol-5-yl]prop-2-enamide] | 0.1 to 100 | 0.1 to 100 | 0.1 to 100 | 0.1 to 100 | 0.1 to 100
C=CC(=O)Nc1ccc2c(c1)c(C)cn2-c1nc(Nc2cnn(CC(C)O)c2)ncc1F (stereo not drawn) [Example 158, N-[1-[5-fluoro-2-[[1-(2-hydroxypropyl)pyrazol-4-yl]amino]pyrimidin-4-yl]-3-methyl-indol-5-yl]prop-2-enamide] | 0.1 to 100 | 0.1 to 100 | 0.1 to 100 | 0.1 to 100 | 0.1 to 100
C=CC(=O)Nc1cnc2c(c1)c(C)cn2-c1nc(Nc2cc(C)n(C(=O)OC(C)(C)C)n2)ncc1C [Example 124, tert-butyl 5-methyl-3-[[5-methyl-4-[3-methyl-5-(prop-2-enoylamino)pyrrolo[2,3-b]pyridin-1-yl]pyrimidin-2-yl]amino]pyrazole-1-carboxylate] | 100 to 250 | 0.1 to 100 | 0.1 to 100 | 100 to 250 | 0.1 to 100
C=CC(=O)Nc1ccc2c(c1)c(C)cn2-c1nc(Nc2cn(CC(C)(C)O)nc2C)ncc1F [Example 182, N-[1-[5-fluoro-2-[[1-(2-hydroxy-2-methyl-propyl)-3-methyl-pyrazol-4-yl]amino]pyrimidin-4-yl]-3-methyl-indol-5-yl]prop-2-enamide] | 0.1 to 100 | 0.1 to 100 | 0.1 to 100 | 0.1 to 100 | 0.1 to 100
C=CC(=O)Nc1ccc2c(c1)c(C)cn2-c1nc(Nc2cn(CCO)nc2C)ncc1F [Example 176, N-[1-[5-fluoro-2-[[1-(2-hydroxyethyl)-3-methyl-pyrazol-4-yl]amino]pyrimidin-4-yl]-3-methyl-indol-5-yl]prop-2-enamide] | 0.1 to 100 | 0.1 to 100 | 0.1 to 100 | 0.1 to 100 | 0.1 to 100
C=CC(=O)Nc1ccc2c(c1)c(C)cn2-c1nc(Nc2cn(CC(F)F)nc2C)ncc1F [Example 164, N-[1-[2-[[1-(2,2-difluoroethyl)-3-methyl-pyrazol-4-yl]amino]-5-fluoro-pyrimidin-4-yl]-3-methyl-indol-5-yl]prop-2-enamide] | 0.1 to 100 | 0.1 to 100 | 0.1 to 100 | 0.1 to 100 | 0.1 to 100
C=CC(=O)Nc1ccc2c(c1)c(C)cn2-c1nc(Nc2cnsc2)ncc1F [Example 148, N-[1-[5-fluoro-2-(isothiazol-4-ylamino)pyrimidin-4-yl]-3-methyl-indol-5-yl]prop-2-enamide] | 0.1 to 100 | 0.1 to 100 | 0.1 to 100 | 0.1 to 100 | 0.1 to 100
C=CC(=O)Nc1ccc2c(-c3nc(Nc4cn(C)nc4C)ncc3F)cn(C)c2c1 [Example 154, N-[3-[2-[(1,3-dimethylpyrazol-4-yl)amino]-5-fluoro-pyrimidin-4-yl]-1-methyl-indol-6-yl]prop-2-enamide] | 250 to 1000 | 0.1 to 100 | 0.1 to 100 | 0.1 to 100 | 0.1 to 100
C=CC(=O)Nc1ccc2c(c1)c(C)cn2-c1nc(Nc2ccn(CCO)n2)ncc1C [Example 100, N-[1-[2-[[1-(2-hydroxyethyl)pyrazol-3-yl]amino]-5-methyl-pyrimidin-4-yl]-3-methyl-indol-5-yl]prop-2-enamide] | 0.1 to 100 | 0.1 to 100 | 0.1 to 100 | 0.1 to 100 | 0.1 to 100
